We go through 2 compounds from patent US20170362184A1, “PRO-SURVIVAL COMPOUNDS” (University Court of The University of Glasgow, priority 2014, published 2017).

Data set [1] deals with pMLC in iPSC (cell line NMF-iPS6). The data set can be described thus: western blot of phosphorylated myosin light chain (pMLC) after dissociation. The format is cell-based, human. Conditions: 15 mins post-dissociation, compared with untreated cells. The protocol:
Protein samples were taken from iPSC (cell line NMF-iPS6) that were treated with SC332, Y27632 or had no treatment (control) before being dissociated. Samples were harvested 15 mins, 30 mins, 45 mins, 1 hr, 2 hr and 4 hr post dissociation. Western blot analysis was performed. […] Data shown as mean±SEM, n=3.
(A western blot detects proteins with antibodies after separation by electrophoresis.)

Data set [2] concerns hESC line RC9. Kind of data set: cell survival 24 hrs post enzymatic passage. In kind it is cell-based, human. The conditions noted are these: enzymatically passaged, 24 hrs post passage, mean ±SEM, n=3. The method, then:
(§1) Enzymatic passage of hPSC methodology 1. 24 hrs prior to passage (around 70-80% confluence), supply 1 well of near confluent hPSC with 2 ml StemPro supplemented with 30 μM SC332 (done during usual daily feed). 2. At point of passage, remove media and wash cells 1× in PBS (−/−). 3. Add 1.5 ml of TrypLE Select (1×) to well and return to incubator for 2-5 mins to dissociate to single cells. 4. Add 1.5 ml of StemPro to deactivate TrypLE Select and pipette gently using a 5 ml serological pipette (to dissociate any remaining clumps). 5. Transfer cells to 15 ml conical bottomed tube and centrifuge for 3 mins at 300 g. 6. Aspirate as much supernatant as possible and resuspend cell pellet by gently flicking. 7. Resuspend cells in PBS (−/−) and centrifuge again for 3 mins at 300 g. 8. Aspirate PBS (−/−) and resuspend cells in 1 ml of StemPro. Gently pipette using serological pipette. 9. Perform a cell count and replate hPSC at a density of 5×10^5 cells per well of a pre-coated 6 well plate. Top up to 2 mls total with StemPro supplemented with 30 μM SC332. Wells are pre-coated with 0.3 mg/ml fibronectin (recombinant vitronectin fragment can also be used). 10. Return cells to incubator and supply with fresh StemPro on a daily basis. 11. 24 hrs prior to subsequent passages (around 70-80% confluence), supply 1 well of PSC with 2 ml StemPro supplemented with 30 μM SC332 (done during usual daily feed). NB SC332 can be used transiently as described above or can be added to culture medium continuously (still at 30 μM).
(§2) Human pluripotent stem cells (hPSC) were either treated with SC332, Y27632, or left untreated, before being enzymatically passaged. […] In particular, the hESC lines H1, H9 and RC9 and the hiPSC NMF-iPSC6 had cell survival of 72% (±2.9), 73% (±2.8), 69% (±1.9) and 74% (±2.6) respectively when treated with SC332. […] Data shown is the mean survival ±SEM, n=3.

For data set [3], the system named is hiPSC NMF-iPSC6. The data set can be described thus: cell survival 24 hrs post enzymatic passage. In kind it is cell-based, human. The conditions noted are these: hiPSC NMF-iPSC6, enzymatically passaged, 24 hrs post passage, mean ±SEM, n=3. The method, then:
as §1, §2

Data set [4] concerns hESC line H9. Kind of data set: cell survival 24 hrs post enzymatic passage. Conditions: enzymatically passaged, 24 hrs post passage, mean ±SEM, n=3. In kind it is cell-based, human. The protocol: as §1, §2
In data set [5] the test system is hESC line H1. Kind of data set: cell survival 24 hrs post enzymatic passage. Conditions: enzymatically passaged, 24 hrs post passage, mean ±SEM, n=3. In kind it is cell-based, human. The method, then:
as §1, §2

For data set [6], the target named is PRK2 (Homo sapiens, UniProt Q16513). The data set can be described thus: radioactive filter-binding kinase assay (33P-ATP). The format is biochemical. The protocol: (§3) This screen utilises a radioactive filter-binding assay (33P-ATP) to assess the effect of compounds on kinase activity. Results confirmed that SC332 had no inhibitory effect on ROCK2 at a concentration of 10 μM (96% activity. SC332 also had very limited effect on the closely related PRK2, showing 76% and 98% activity when used at 10 μM and 30 μM respectively (FIG. 6).

The target in data set [7] is ROCK2 (Rattus norvegicus, UniProt Q62868). Kind of data set: radioactive filter-binding kinase assay (33P-ATP). The format is biochemical. The protocol: as §3
For data set [8], the system named is hPSC (hESC cell line H1 and NMF-iPS6). The data set can be described thus: passive differentiation into three germ layers after 30 passages. In kind it is cell-based, human. Conditions: after 30 consecutive enzymatic passages. An excerpt:
HPSC treated for 30 passages with SC332 or Y27632 were passively differentiated for 2 weeks in suspension culture, followed by 2 weeks adherent culture, fixed and stained for markers of the three germ layers. Control cells that had been mechanically passaged and unexposed to any survival compound were also differentiated and stained in the same way. PAX6 is stained in the left hand column, AFP in the centre column and SMA in the right hand column. All cells were co-stained with DAPI. Scale bar represents 100 μm.
The differentiation capacity of hPSC after treatment with SC332 was also assessed. HPSC (hESC cell line H1 and NMF-iPS6) that had been enzymatically passaged with either SC332 or Y27632 for 30 consecutive passages were passively differentiated alongside mechanically maintained cells using a mixture of embryoid body based suspension culture and adherent culture. Differentiated cells were subsequently fixed and stained for markers from each of the three germ layers. […] As expected, untreated mechanically passaged control cells, included as a positive control, were also able to differentiate into each of the three germ layers (FIG. 5).

Data set [9] concerns hPSC (H1 hESC). Kind of data set: cytogenetic stability (karyotype) after 30 consecutive passages. The format is cell-based, human. The conditions noted are these: H1 hESC treated for 30 consecutive passages. From the text:
In addition to this, long term exposure to compound SC332 had no detrimental effect on the karyotypic stability of hPSC (FIGS. 2 and 3).

PRK2, sequence (Q16513 501-984 limits assumed, species assumed): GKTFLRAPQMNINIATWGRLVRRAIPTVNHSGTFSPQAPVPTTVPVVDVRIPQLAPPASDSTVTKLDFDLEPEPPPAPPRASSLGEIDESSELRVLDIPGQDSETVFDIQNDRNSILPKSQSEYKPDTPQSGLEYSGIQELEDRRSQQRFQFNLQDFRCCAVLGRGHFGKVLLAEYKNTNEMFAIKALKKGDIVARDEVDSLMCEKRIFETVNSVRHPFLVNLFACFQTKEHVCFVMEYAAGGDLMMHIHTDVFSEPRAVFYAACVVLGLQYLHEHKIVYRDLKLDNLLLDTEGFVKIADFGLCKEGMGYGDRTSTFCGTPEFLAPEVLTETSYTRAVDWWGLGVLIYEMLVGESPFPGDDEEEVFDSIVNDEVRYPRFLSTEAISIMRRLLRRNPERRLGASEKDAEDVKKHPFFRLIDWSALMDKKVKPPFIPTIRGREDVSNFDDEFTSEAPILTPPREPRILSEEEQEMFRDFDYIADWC
ROCK2, sequence (Q62868 2-543 limits assumed): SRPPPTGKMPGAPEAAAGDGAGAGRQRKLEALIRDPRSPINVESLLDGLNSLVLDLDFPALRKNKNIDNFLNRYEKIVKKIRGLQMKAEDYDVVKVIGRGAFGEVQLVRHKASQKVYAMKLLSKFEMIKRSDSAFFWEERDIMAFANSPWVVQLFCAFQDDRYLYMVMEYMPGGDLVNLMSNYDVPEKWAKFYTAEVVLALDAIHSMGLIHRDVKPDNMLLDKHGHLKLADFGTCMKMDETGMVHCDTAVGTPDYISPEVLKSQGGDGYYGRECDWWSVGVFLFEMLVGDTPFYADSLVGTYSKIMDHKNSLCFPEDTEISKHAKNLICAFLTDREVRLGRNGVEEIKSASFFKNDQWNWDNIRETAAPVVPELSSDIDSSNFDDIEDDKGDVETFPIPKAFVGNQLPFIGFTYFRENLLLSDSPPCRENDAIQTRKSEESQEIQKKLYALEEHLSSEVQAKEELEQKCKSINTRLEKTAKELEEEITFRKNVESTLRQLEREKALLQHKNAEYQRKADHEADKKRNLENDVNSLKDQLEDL

As to `Cc1cc(NC(=O)Cn2c(NCc3ccccc3)nc3ccccc32)no1` [SC332, 2-(2-(benzylamino)-1H-benzo[d]imidazol-1-yl)-N-(5-methylisoxazol-3-yl)acetamide], the “levels of pMLC relative to α-tubulin” value in [1] is listed as “high levels of pMLC equivalent to those in untreated cells”. Also, the cell survival in data set [2] was 69%; in data set [3] it was 74%; in data set [4], 73%; in [5] it was 72%. Besides, the PRK2 activity in data set [6] (10 μM) stood at 76 % activity; in data set [6] (30 μM), 98 % activity. In [6] (30 μM), the “inhibition of PRK2 (in words)” value is “did not inhibit”. In addition, the ROCK2 activity in data set [7] (10 μM) is given as 96 % activity. Further, the “inhibition of ROCK2 (in words)” value in data set [7] (30 μM) is recorded as “did not inhibit”. Also, the “differentiation towards mesoderm (SMA), endoderm (AFP) or ectoderm (PAX6)” value in data set [8] is recorded as “did not block the differentiation”. In addition, the “cytogenetic stability (karyotype)” value in [9] is recorded as “karyotypically normal (46, XY)”.

As for `C[C@@H](N)[C@H]1CC[C@H](C(=O)Nc2ccncc2)CC1` [Y27632, reference compound], the “levels of pMLC relative to α-tubulin” value in data set [1] is recorded as “blocked the increase”. The cell survival turned out to be 71% in [2], 74% in [3], 73% in [4] and 72% in [5]. The “differentiation towards mesoderm (SMA), endoderm (AFP) or ectoderm (PAX6)” value in data set [8] was “did not block the differentiation”. Also, in data set [9], the “cytogenetic stability (karyotype)” value is “karyotypically normal (46, XY)”.
